We go through two compounds from a compilation of properties of binary mixtures (doi:10.1016/j.jct.2019.106017).

A short description of this data set: xn = mol fraction of the nth substance listed. To be noted: 99.7 kPa.

SMILES strings stand for the structures.

With `CCCCCCCCn1cc[n+](C)c1.F[B-](F)(F)F` + CC1COC(=O)O1, the viscosity is, setting by setting: (303.15 K, x2 = 0.7343) 5.22 mPa·s; (303.15 K, x2 = 0.917) 2.84 mPa·s; (313.15 K, x2 = 0.4086) 26.1 mPa·s; (313.15 K, x2 = 0.7343) 5.01 mPa·s; (313.15 K, x2 = 0.917) 2.61 mPa·s; (323.15 K, x2 = 0.4086) 18.1 mPa·s. Moreover, the viscosity by setting is: (323.15 K, x2 = 0.7343) 4.81 mPa·s; (323.15 K, x2 = 0.917) 2.36 mPa·s; (333.15 K, x2 = 0.4086) 12.9 mPa·s; (333.15 K, x2 = 0.7343) 4.62 mPa·s; (333.15 K, x2 = 0.917) 2.16 mPa·s.
For the compound `CC1COC(=O)O1` (centres undefined) + CCCCCCCCn1cc[n+](C)c1.F[B-](F)(F)F, the viscosity was determined as 2.21 mPa·s (303.15 K, x1 = 1); 2 mPa·s (313.15 K, x1 = 1); 1.6 mPa·s (333.15 K, x1 = 1).
